# In US8722884B2, “Pyrimidine derivatives for the treatment of abnormal cell growth” (Verastem, Inc., priority 2005, dated 2014):
# Like-named read-outs stand apart in the source and are kept apart here.
# Assays:
# Format in all cases: physicochemical
# [1] = VTI moisture adsorption/desorption (hygroscopicity); details: for Hygroscopicity assessment in words: VTI, up to 90% RH; for Hygroscopic moisture gain / weight gain at 90% RH (VTI): flow-through VTI, 25 C; for Hygroscopic moisture gain / weight gain at 90% RH (VTI) / Hygroscopicity (by weight) at 90% relative humidity at ambient temperature: 90% RH
# Text: The salts and solvates of the present invention can be further characterized by VTI water vapor adsorption to measure hygroscopicity. […] Other methods of analysis are described in more detail in the Examples.
# This monobesylate salt of Formula I appeared as fine crystalline particles of moderate to high birefringence with irregularly-shaped morphology. The size of the particles ranged from approximately […] to 50 mm in diameter, with some aggregates up to about 200 mm in diameter. The material was tested using DSC at a heating rate of five degrees/minute, FIG. 1(b). A sharp melting endotherm with onset temperature of 254° C. was observed. Minor front tailing for the endotherm was also noted. The material was tested by TGA at a heating rate of five degrees/minute, FIG. 1(c). No loss in weight was observed up to the melting onset temperature (˜250)° C. […] These solvents were thus likely entrained by the crystal and were not released until melting. […] The dynamic moisture sorption was evaluated using a flow-through VTI apparatus at 25° C. The sample was initially dried at ˜2% RH for maximum of two hours, followed by a moisture adsorption ramp from 10% RH to 90%, then a desorption ramp back down to 10% RH. Initial drying removed 0.08% by weight, followed by a maximum moisture gain of 0.09% at 90% RH. Thus, this complex was non-hygroscopic.
# The sample was tested in flow-through VTI with relative humidity ramp from 0 to 90%, then a desorption ramp back down to 10%1 RH at 25 C. […] The monomesylate was analyzed for elemental composition of carbon, hydrogen, nitrogen, fluorine and sulfur. The results from analysis met the stoichiometry of a mono-mesylate salt containing 1% THF.
# The hemihydrate tosylate salt of Formula I consisted of fine birefringent aggregated needles and lathes. This sample was crystalline by PXRD. The thermal profile of this sample was obtained by heating from 30-300 C at 5 C/min. […] The volatile content of this sample was obtained by heating from 30-225 C at 5 C/min. The total volatile content was 1.4%, and consisted of water and ethanol by IR. The sample was tested in flow-through VTI with relative humidity ramp from 0 to 90% at 25 C.
# [2] = Solid-state stability at 70 C/75% RH
# Protocol: The monobesylate salt of Formula I (m. wt. 665.67), Form A, was a white crystalline solid with irregularly-shaped particle morphology ranging from approximately […] in diameter. This anhydrous form melted (DSC, Tonset) at 254° C. with decomposition.
# [3] = Solubility in aqueous media and organic solvents
# Text: (§1) Solubility increased in acidic media, with a solubility of 1 mgA/ml observed in pH 2 buffer. […] Solubility determined in several common organic solvents, such as ethanol and acetone, was about 200 mgA/ml. The following table summarizes the physical and chemical properties of the monobesylate salt of Formula I: […]
# [4] = pKa in solution; details: weak base
# Text: as §1
# [5] = listed as monobesylate salt of Formula I
structure (smiles),measurement,setting,value
"CN(c1ncccc1CNc1nc(Nc2ccc3c(c2)CC(=O)N3)ncc1C(F)(F)F)S(C)(=O)=O [Example 1, N-Methyl-N-(3-{[2-(2-oxo-2,3-dihydro-1H-indol-5-ylamino)-5-trifluoromethyl-pyrimidin-4-ylamino]-methyl}-pyridin-2-yl)-methanesulfonamide]",Hygroscopicity assessment in words,[1]; [5],non-hygroscopic
same,Hygroscopic moisture gain / weight gain at 90% RH (VTI),[1]; [5],0.09%
same,"Solid-state stability, 3 weeks at 70 C./75% RH (purity by HPLC area % relative to room temperature control)","[2]; 3 weeks, 70 C/75% RH",>99.9% (purity by HPLC
same,Solid-state stability in words,[2]; three weeks exposure to 70 C/75% RH,chemically and physically stable in the solid-state
same,Acetone solubility,[3]; acetone,206 ugA/ml
same,Aqueous buffer pH 1.4 solubility,[3]; aqueous buffer pH 1.4,1162 ugA/ml
same,Aqueous buffer pH 7 solubility,[3]; aqueous buffer pH 7,4 ugA/ml
same,solubility,"[3]; aqueous buffer, heading: Solubility in unbuffered water, unbuffered water, pH 2.65",369 µg/mL
same,solubility,"[3]; aqueous buffer, pH 2 buffer, read-out: Solubility in pH 2 buffer",1000 µg/mL
same,solubility,"[3]; aqueous media, water, aqueous, above pH 5, read-out: Aqueous solubility above pH 5",~5000 µg/mL
same,Ethanol solubility,[3]; ethanol,260 ugA/ml
same,"Solubility in common organic solvents, such as ethanol and acetone",[3]; organic solvents,about 200 mgA/ml
same,Unbuffered water solubility (pH 2.65),"[3]; unbuffered water, pH 2.65 (table)",369 ugA/ml
same,pKa,[4],4.58
"CN(c1ncccc1CNc1nc(Nc2ccc3c(c2)CC(=O)N3)ncc1C(F)(F)F)S(C)(=O)=O [Example 4, N-Methyl-N-(3-{[2-(2-oxo-2,3-dihydro-1H-indol-5-ylamino)-5-trifluoromethyl-pyrimidin-4-ylamino]-methyl}-pyridin-2-yl)-methanesulfonamide]",Hygroscopicity (by weight) at 90% relative humidity at ambient temperature,[1],0.6%
same,Hygroscopic moisture gain / weight gain at 90% RH (VTI),[1]; listed as tosylate salt of Formula I,0.6%
"CN(c1ncccc1CNc1nc(Nc2ccc3c(c2)CC(=O)N3)ncc1C(F)(F)F)S(C)(=O)=O [Example 2, N-Methyl-N-(3-{[2-(2-oxo-2,3-dihydro-1H-indol-5-ylamino)-5-trifluoromethyl-pyrimidin-4-ylamino]-methyl}-pyridin-2-yl)-methanesulfonamide]",Hygroscopicity (by weight) at 90% relative humidity at ambient temperature,[1],0.16%
same,Hygroscopic moisture gain / weight gain at 90% RH (VTI),[1]; listed as besylate salt of Formula I,0.16%
"CN(c1ncccc1CNc1nc(Nc2ccc3c(c2)CC(=O)N3)ncc1C(F)(F)F)S(C)(=O)=O [Example 5, N-Methyl-N-(3-{[2-(2-oxo-2,3-dihydro-1H-indol-5-ylamino)-5-trifluoromethyl-pyrimidin-4-ylamino]-methyl}-pyridin-2-yl)-methanesulfonamide]",Hygroscopicity (by weight) at 90% relative humidity at ambient temperature,[1],2.7%
"CN(c1ncccc1CNc1nc(Nc2ccc3c(c2)CC(=O)N3)ncc1C(F)(F)F)S(C)(=O)=O [Example 3, N-Methyl-N-(3-{[2-(2-oxo-2,3-dihydro-1H-indol-5-ylamino)-5-trifluoromethyl-pyrimidin-4-ylamino]-methyl}-pyridin-2-yl)-methanesulfonamide]",Hygroscopicity (by weight) at 90% relative humidity at ambient temperature,[1],1.4%
same,Hygroscopicity assessment in words,[1]; listed as monomesylate,kinetically non-hygroscopic
same,Hygroscopic moisture gain / weight gain at 90% RH (VTI),[1]; listed as monomesylate,1.4%
"CN(c1ncccc1CNc1nc(Nc2ccc3c(c2)CC(=O)N3)ncc1C(F)(F)F)S(C)(=O)=O [Example 6, N-Methyl-N-(3-{[2-(2-oxo-2,3-dihydro-1H-indol-5-ylamino)-5-trifluoromethyl-pyrimidin-4-ylamino]-methyl}-pyridin-2-yl)-methanesulfonamide]",Hygroscopicity (by weight) at 90% relative humidity at ambient temperature,[1],1.4%
